Results published in ChEMBL document CHEMBL5352455, “Discovery of novel N-acylpyrazoles as potent and selective thrombin inhibitors” (Eur J Med Chem, 2023).

Assays:
in vitro [1] = details: CD-1, mouse, plasma
Description: Stability in CD-1 mouse plasma assessed as half life

in vitro [2] = details: Sprague-Dawley, rat, plasma
Description: Stability in Sprague-Dawley rat plasma assessed as half life

in vitro [3] = details: human, plasma
Description: Stability in human plasma assessed as half life

[4] = Half life in CD-1 mouse at 0.5 mg/kg, iv measured after 24 hrs by LC-MS analysis; assay type: ADME, organism-based; details: in vivo
[5] = AUC in CD-1 mouse at 0.5 mg/kg, iv measured after 24 hrs by LC-MS analysis; assay type: ADME, organism-based; design: time 24 hrs, dose 0.5 mg/kg, route iv; details: in vivo
[6] = AUC in CD-1 mouse at 5 mg/kg, po measured after 24 hrs by LC-MS analysis; assay type: ADME, organism-based; design: dose 5 mg/kg, time 24 hrs, route po; details: in vivo
[7] = Cmax in CD-1 mouse at 5 mg/kg, po measured after 24 hrs by LC-MS analysis; assay type: ADME, organism-based; design: time 24 hrs, dose 5 mg/kg, route po; details: in vivo
[8] = Tmax in CD-1 mouse at 5 mg/kg, po measured after 24 hrs by LC-MS analysis; assay type: ADME, organism-based; details: in vivo
[9] = Half life in CD-1 mouse at 5 mg/kg, po measured after 24 hrs by LC-MS analysis; assay type: ADME, organism-based; details: in vivo
[10] = Oral bioavailability in CD-1 mouse at 5 mg/kg measured after 24 hrs by LC-MS analysis; assay type: ADME, organism-based; details: in vivo

Row | SMILES | half-life (in vitro [1]) | half-life (in vitro [3]) | other results
1 | C[C@@H]1CNc2c(cccc2S(=O)(=O)N[C@@H](CCCNC(=N)N)C(=O)N2CC[C@@H](C)C[C@@H]2C(=O)O)C1 | > 120 min | > 120 min | half-life (in vitro [2]): > 120 min
2 | CC(C)(C)C(=O)n1nc(C2CCCNC2)cc1NCc1ccc(Cl)s1 (stereo unspecified) | 910 min |  | 
3 | CC(C)(CO)C(=O)n1nc(C2CCNCC2)c(F)c1NCc1ccc(Cl)s1 | 44 min |  | 
4 | CC(C)(C)C(=O)n1nc(-c2ccc[nH]c2=O)cc1NCc1ccc(Cl)s1 | 350 min |  | half-life [4]: 42 min; AUC at 24 h [5]: 300 ng·h/mL; AUC at 24 h [6]: 713 ng·h/mL; Cmax [7]: 127 ng/mL; Tmax [8]: 42 min; half-life [9]: 354 min; bioavailability [10]: 22.8%
5 | CC(C)(C)C(=O)n1nc(-c2cccnn2)cc1NCc1ccc(Cl)s1 |  | 51 min | 

Further lines, with some results ahead:

Row | half-life (in vitro [1]) | half-life (in vitro [3]) | SMILES | other results
6 |  | 69 min | O=C(c1ccsc1)n1nc(-c2ccccc2F)nc1NCc1cccs1 | 
7 | 4.1 min | 30 min | COc1ccccc1C(=O)n1nc(-c2ccccn2)nc1NCc1ccc(Cl)s1 | half-life (in vitro [2]): 1.5 min
8 |  | 48 min | COc1ccccc1C(=O)n1nc(-c2ccccc2F)nc1NCc1cccs1 | 
9 | 160 min |  | COc1ccccc1C(=O)n1nc(C2CCOCC2)cc1NCc1ccc(Cl)s1 | 
10 | 43 min |  | COc1ccccc1C(=O)n1nc(C2CCNCC2)cc1NCc1ccc(Cl)s1 | 
